The target in assay [1] is Sigma non-opioid intracellular receptor 1 (Rattus norvegicus, UniProt Q9R0C9). The assay is described as follows: Displacement of (+)-[3H]pentazocine from sigma 1 receptor in rat PC12 cells. Type of assay: cell-based, PC-12.
Assay [2] has as its target Sodium-dependent noradrenaline transporter (Homo sapiens, UniProt P23975). The assay is described as follows: Displacement of [3H]nisoxetine from human NET expressed in HEK cells. The class given is cell-based, HEK293. Conditions: for inhibition: HEK293, concentration not given here. For orientation: Displacement assays read how much labelled ligand stays bound in the presence of the test substance.

In assay [3] the target is Sodium-dependent serotonin transporter (Homo sapiens, UniProt P31645). Briefly: Displacement of [3H]citalopram from human SERT expressed in HEK cells. The class given is cell-based, HEK293. Conditions: for inhibition: HEK293, concentration not given here.
For assay [4], the target named is D(1A) dopamine receptor (Homo sapiens) (UniProt P21728). The assay is described as follows: Inhibition of dopamine D1 receptor at 10 uM.
Chain of D(1A) dopamine receptor (Homo sapiens) (P21728 whole entry): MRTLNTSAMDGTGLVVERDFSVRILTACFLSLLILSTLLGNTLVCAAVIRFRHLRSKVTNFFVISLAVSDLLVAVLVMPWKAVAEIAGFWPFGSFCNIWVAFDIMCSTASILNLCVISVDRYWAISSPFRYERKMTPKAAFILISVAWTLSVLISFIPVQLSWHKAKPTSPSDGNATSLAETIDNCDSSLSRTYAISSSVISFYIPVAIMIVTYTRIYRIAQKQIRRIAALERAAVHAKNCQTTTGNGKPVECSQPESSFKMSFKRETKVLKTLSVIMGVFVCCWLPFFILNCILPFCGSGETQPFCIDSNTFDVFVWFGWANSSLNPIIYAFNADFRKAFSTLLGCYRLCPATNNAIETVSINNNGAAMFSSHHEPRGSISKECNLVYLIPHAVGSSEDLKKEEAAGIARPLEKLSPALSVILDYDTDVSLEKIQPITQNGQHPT
The target in assay [5] is T1, D(4) dopamine receptor (Homo sapiens) (UniProt P21917).
T1 sequence (whole entry): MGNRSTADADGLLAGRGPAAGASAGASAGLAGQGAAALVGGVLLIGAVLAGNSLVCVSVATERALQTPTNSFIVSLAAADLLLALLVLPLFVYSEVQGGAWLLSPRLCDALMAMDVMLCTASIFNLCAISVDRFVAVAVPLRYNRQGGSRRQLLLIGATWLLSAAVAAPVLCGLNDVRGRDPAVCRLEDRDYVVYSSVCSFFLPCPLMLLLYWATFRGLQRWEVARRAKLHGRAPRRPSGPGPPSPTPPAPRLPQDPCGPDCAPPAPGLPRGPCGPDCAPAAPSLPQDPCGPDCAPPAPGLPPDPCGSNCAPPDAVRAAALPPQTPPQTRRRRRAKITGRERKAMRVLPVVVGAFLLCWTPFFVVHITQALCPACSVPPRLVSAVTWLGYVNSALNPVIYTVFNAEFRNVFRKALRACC
Briefly: Inhibition of dopamine D4 receptor at 10 uM.

Assay [6] addresses T2, 5-hydroxytryptamine receptor 1A (Homo sapiens) (UniProt P08908).
T2 sequence (whole entry): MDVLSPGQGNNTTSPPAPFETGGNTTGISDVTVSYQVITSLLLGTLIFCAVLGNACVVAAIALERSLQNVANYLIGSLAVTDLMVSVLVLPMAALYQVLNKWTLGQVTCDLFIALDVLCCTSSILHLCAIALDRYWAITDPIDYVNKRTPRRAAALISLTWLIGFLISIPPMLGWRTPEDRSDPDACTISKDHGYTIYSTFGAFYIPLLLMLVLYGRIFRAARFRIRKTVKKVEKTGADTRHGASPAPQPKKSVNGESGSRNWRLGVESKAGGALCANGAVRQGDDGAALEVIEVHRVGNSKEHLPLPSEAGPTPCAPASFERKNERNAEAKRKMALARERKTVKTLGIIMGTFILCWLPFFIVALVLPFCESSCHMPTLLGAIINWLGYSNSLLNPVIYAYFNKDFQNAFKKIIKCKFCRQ
The assay is described as follows: Inhibition of 5HT1A receptor at 10 uM.

Assay [7] concerns the target 5-hydroxytryptamine receptor 1B (Homo sapiens) (UniProt P28222). Briefly: Inhibition of 5HT1B receptor at 10 uM.
In assay [8] the target is 5-hydroxytryptamine receptor 1E (Homo sapiens) (UniProt P28566). The assay is described as follows: Inhibition of 5HT1E receptor at 10 uM.
Chain of 5-hydroxytryptamine receptor 1E (Homo sapiens) (P28566 whole entry): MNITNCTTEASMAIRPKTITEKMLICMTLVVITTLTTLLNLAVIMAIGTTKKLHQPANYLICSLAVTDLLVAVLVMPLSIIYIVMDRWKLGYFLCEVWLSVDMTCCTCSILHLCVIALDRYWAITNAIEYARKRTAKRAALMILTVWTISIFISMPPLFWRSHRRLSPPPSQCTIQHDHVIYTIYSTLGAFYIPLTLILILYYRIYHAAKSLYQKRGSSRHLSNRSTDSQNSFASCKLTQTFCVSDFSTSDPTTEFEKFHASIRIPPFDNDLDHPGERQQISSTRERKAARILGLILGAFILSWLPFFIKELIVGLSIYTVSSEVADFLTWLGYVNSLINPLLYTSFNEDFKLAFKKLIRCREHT
The target in assay [9] is T3, 5-hydroxytryptamine receptor 2C (Homo sapiens) (UniProt P28335).
T3 sequence (whole entry): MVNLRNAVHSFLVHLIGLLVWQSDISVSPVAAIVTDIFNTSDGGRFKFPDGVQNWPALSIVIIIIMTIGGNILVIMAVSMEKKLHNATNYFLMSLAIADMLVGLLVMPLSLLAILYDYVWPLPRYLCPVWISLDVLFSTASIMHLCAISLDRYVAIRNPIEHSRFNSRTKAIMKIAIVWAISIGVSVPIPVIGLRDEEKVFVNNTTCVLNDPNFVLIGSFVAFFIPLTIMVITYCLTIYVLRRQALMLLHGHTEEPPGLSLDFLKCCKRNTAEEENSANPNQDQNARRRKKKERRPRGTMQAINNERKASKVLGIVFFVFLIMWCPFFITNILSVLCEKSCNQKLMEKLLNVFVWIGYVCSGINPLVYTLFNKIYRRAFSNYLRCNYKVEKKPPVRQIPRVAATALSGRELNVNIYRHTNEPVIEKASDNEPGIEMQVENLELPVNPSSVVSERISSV
Briefly: Inhibition of 5HT2C receptor at 10 uM.

Assay [10] addresses 5-hydroxytryptamine receptor 7 (Homo sapiens) (UniProt P34969). Briefly: Inhibition of 5HT7 receptor at 10 uM.
Assay [11] addresses T4, Alpha-2A adrenergic receptor (Homo sapiens) (UniProt P08913).
T4 sequence (whole entry): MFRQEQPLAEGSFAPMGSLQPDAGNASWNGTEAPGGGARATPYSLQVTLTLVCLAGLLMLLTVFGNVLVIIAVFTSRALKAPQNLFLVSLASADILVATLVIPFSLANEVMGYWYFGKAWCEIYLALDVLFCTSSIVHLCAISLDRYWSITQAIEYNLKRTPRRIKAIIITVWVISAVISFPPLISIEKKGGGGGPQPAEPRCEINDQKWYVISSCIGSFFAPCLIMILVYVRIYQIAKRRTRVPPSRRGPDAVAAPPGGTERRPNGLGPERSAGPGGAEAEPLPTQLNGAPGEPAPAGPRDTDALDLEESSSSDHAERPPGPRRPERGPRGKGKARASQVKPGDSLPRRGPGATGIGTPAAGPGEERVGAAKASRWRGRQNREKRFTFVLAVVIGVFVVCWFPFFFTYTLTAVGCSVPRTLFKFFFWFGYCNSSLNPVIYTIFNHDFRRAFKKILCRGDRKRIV
Briefly: Inhibition of alpha2A adrenergic receptor at 10 uM.

The target of assay [12] is T5, Muscarinic acetylcholine receptor M4 (Homo sapiens) (UniProt P08173).
T5 sequence (whole entry): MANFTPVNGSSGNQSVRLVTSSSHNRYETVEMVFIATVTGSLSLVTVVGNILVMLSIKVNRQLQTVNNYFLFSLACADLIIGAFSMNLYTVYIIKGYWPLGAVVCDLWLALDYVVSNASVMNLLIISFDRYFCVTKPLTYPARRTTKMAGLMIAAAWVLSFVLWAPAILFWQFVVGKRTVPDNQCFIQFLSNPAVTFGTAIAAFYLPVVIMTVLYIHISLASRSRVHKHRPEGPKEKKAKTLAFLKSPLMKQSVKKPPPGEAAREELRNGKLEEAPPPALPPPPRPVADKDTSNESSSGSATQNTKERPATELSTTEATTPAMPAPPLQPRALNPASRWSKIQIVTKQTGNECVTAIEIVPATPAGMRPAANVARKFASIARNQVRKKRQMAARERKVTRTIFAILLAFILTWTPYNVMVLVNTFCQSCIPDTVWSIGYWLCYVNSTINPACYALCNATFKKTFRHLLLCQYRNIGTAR
The assay is described as follows: Inhibition of muscarinic M4 receptor at 10 uM.

Chain of Sigma non-opioid intracellular receptor 1 (Q9R0C9 whole entry): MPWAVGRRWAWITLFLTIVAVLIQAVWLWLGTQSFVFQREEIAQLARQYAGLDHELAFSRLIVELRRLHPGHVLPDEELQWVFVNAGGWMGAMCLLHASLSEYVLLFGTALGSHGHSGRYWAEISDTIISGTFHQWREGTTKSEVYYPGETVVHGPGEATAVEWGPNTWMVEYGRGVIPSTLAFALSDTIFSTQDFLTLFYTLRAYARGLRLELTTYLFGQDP
Chain of 5-hydroxytryptamine receptor 7 (Homo sapiens) (P34969 whole entry): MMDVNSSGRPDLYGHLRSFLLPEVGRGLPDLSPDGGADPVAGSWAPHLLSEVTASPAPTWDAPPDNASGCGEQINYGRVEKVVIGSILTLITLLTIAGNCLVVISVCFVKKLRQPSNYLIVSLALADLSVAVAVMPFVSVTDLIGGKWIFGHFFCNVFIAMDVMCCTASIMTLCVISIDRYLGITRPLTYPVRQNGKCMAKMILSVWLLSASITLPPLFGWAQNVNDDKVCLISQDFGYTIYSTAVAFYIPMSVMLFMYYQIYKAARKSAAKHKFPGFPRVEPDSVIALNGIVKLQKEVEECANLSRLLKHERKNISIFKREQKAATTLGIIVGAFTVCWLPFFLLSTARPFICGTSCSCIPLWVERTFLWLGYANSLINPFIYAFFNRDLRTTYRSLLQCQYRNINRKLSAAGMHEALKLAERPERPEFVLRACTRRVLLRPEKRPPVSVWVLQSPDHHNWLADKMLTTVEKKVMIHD
Chain of 5-hydroxytryptamine receptor 1B (Homo sapiens) (P28222 whole entry): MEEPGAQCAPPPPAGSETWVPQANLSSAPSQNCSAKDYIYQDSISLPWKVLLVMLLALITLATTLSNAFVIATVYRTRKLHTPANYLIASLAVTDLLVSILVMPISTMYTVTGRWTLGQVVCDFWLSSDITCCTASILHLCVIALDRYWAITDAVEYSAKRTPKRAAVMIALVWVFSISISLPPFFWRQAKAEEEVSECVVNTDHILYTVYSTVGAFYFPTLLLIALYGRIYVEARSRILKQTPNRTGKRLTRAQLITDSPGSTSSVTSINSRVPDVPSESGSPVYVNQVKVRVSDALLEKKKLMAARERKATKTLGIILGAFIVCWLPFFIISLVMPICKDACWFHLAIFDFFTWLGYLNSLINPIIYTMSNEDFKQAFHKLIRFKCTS
Chain of Sodium-dependent noradrenaline transporter (P23975 whole entry): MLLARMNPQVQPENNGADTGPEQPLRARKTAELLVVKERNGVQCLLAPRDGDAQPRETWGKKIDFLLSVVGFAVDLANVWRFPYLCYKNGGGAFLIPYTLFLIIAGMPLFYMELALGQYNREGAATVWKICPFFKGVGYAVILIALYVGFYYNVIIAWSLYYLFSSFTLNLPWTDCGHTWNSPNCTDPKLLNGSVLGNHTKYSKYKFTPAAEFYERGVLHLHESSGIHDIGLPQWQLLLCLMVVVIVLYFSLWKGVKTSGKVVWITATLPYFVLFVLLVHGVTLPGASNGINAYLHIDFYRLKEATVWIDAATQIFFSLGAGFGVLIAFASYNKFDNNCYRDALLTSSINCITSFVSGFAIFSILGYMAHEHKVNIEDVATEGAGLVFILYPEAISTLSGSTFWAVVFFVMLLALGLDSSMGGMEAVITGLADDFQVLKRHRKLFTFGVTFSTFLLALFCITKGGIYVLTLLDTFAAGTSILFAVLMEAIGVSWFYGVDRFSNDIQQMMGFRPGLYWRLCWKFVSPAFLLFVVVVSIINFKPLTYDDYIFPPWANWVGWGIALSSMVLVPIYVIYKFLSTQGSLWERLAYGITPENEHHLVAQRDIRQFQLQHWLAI

As a reminder, the Ki is a dissociation constant, usually derived from enzyme kinetics or from competition with a known ligand. A higher Ki goes with weaker binding. By inhibition is commonly meant the relative decrease from the control value, in per cent. Take `Fc1cccc(CCN[C@H]2C3C4CC5C6C4CC3C6C52)c1` (stereo partly specified): the values for the inhibitory constant (Ki) in assay [1], in assay [2] and in assay [3] were 0.019 µM, 3.62 µM and above 10 µM, respectively. The inhibition in assay [4], in assay [5], in assay [6], in assay [7], in [8] and in assay [9] was below 50% throughout. In assay [10], this compound returned an inhibition below 50%.
`CN(Cc1cccc(F)c1)[C@H]1C2C3CC4C5C3CC2C5C41` (stereo partly specified) came in with a Ki in assay [1] of 1.57 µM. Also, the inhibition in assay [2], in assay [3], in assay [11], in [4], in assay [5] and in assay [6] was below 50% in each case. The inhibition in [7], in assay [8], in assay [9], in assay [10] and in assay [12] was below 50% throughout.
Consider `Fc1cccc(CN[C@H]2C3C4CC5C6C4CC3C6C52)c1` (stereo partly specified), for which the inhibitory constant (Ki) in assay [1] was 0.198 µM; in [2] it was 5.88 µM; in assay [3], above 10 µM. The inhibition in assay [11], in assay [4], in assay [5], in assay [6], in [7] and in [8] was below 50% each time. Also, the inhibition in assay [9], in assay [10] and in assay [12] was below 50% each time.
As for `CN(CCc1cccc(F)c1)[C@H]1C2C3CC4C5C3CC2C5C41` (stereo partly specified), in assay [1], affinity was put at a Ki of 1.16 µM. Moreover, the inhibition in assay [2], in assay [3], in assay [11], in assay [4], in assay [5] and in assay [6] was below 50% each time. Also, the inhibition in [7], in assay [8], in [9], in assay [10] and in assay [12] was below 50% throughout.

The values above are taken from ChEMBL document CHEMBL1641373, “Trishomocubane as a scaffold for the development of selective dopamine transporter (DAT) ligands” (Bioorg Med Chem Lett, 2011).
